Measured values from patent US8937084B2, “Nitrogen containing morphinan derivatives and the use thereof” (Purdue Pharma L.P., priority 2012, dated 2015).

How the values were obtained:
[1] = target: T1, μ-opioid receptor (Homo sapiens (Human), UniProt P35372); assay: μ-opioid receptor [35S]GTPγS functional assay, U-2 OS cells; type: biochemical; settings: for EC50: GTPγS; for Emax: relative to DAMGO
Description: (§1) μ-Opioid Receptor Functional Assay Procedures: [^35S]GTPγS functional assays were conducted using freshly thawed μ-receptor membranes prepared in-house from a cell line expressing recombinant μ opioid receptor in a HEK-293, CHO or U-2 OS cell background, or purchased from a commercial source (Perkin Elmer, Shelton, Conn.; or DiscovRx, Fremont, Calif.). Assay reactions were prepared by sequentially adding the following reagents to binding buffer (100 mM NaCl, 10 mM MgCl2, 20 mM HEPES, pH 7.4) on ice (final concentrations indicated): membrane protein (0.026 mg/mL), saponin ([…]), GDP ([…]) and [^35S]GTPγS (0.20 nM; Perkin Elmer, Shelton, Conn.). The prepared membrane solution (190 μl/well) was transferred to 96-shallow well polypropylene plates containing 10 μl of 20× concentrated stock solutions of the agonist [D-Ala^2, N-methyl-Phe^4 Gly-ol^5]-enkephalin (DAMGO) prepared in dimethyl sulfoxide (DMSO). Plates were incubated for 30 min at about 25° C. with shaking. Reactions were terminated by rapid filtration onto 96-well Unifilter GF/B filter plates (Perkin Elmer, Shelton, Conn.) using a 96-well tissue harvester (Perkin Elmer, Shelton, Conn.) followed by three filtration washes with 200 μl of ice-cold wash buffer (10 mM NaH2PO4, 10 mM Na2HPO4, pH 7.4). Filter plates were subsequently dried at 50° C. for 2-3 hours. BetaScint scintillation cocktail (Perkin Elmer, Shelton, Conn.) was added (50 μl/well) and plates were counted using a Packard Top-Count for 1 min/well. Data were analyzed using the sigmoidal dose-response curve fitting functions in GraphPad PRISM v. 3.0, or an in-house function for non-linear, sigmoidal dose-response curve-fitting.
(§2) μ-Opioid Receptor Functional Data: μ GTP EC50 is the concentration of a compound providing 50% of the maximal response for the compound at a μ-opioid receptor.
(§3) μ GTP Emax (%) is the maximal effect elicited by a compound relative to the effect elicited by DAMGO, a standard μ agonist. Generally, the μ GTP Emax (%) value measures the efficacy of a compound to treat or prevent pain or other Conditions.
(§4) The following TABLE 3 provides results on the activity response of certain Compounds of the Invention at the μ- and κ-opioid receptors determined as described above using U-2 OS cells.

[2] = target: T2, κ opioid receptor (Homo sapiens (Human), UniProt P41145); assay: κ-opioid receptor [35S]GTPγS functional assay, HEK-293 or CHO cells; type: biochemical; settings: for EC50: GTPγS; for Emax: relative to U69,593
Description: (§5) κ-Opioid Receptor Functional Assay Procedures: Functional [^35S]GTPγS binding assays were conducted as follows. κ opioid receptor membrane solution was prepared by sequentially adding final concentrations of 0.026 μg/μl κ membrane protein (in-house), 10 μg/mL saponin, 3 μM GDP and 0.20 nM [^35S]GTPγS to binding buffer (100 mM NaCl, 10 mM MgCl2, 20 mM HEPES, pH 7.4) on ice. The prepared membrane solution (190 μl/well) was transferred to 96-shallow well polypropylene plates containing 10 μl of 20× concentrated stock solutions of agonist prepared in DMSO. Plates were incubated for 30 min at a temperature of about 25° C. with shaking. Reactions were terminated by rapid filtration onto 96-well Unifilter GF/B filter plates (Perkin Elmer, Shelton, Conn.) using a 96-well tissue harvester (Packard) and followed by three filtration washes with 200 μl ice-cold binding buffer (10 mM NaH2PO4, 10 mM Na2HPO4, pH 7.4). Filter plates were subsequently dried at 50° C. for 2-3 hours. Fifty μl/well scintillation cocktail (Perkin Elmer, Shelton, Conn.) was added and plates were counted in a Packard Top-Count for 1 min/well.
(§6) κ-Oploid Receptor Functional Data: κ GTP EC50 is the concentration of a compound providing 50% of the maximal response for the compound at a K receptor.
(§7) κ GTP Emax (%) is the maximal effect elicited by a compound relative to the effect elicited by U69,593.
(§8) In TABLE 2, activity response of certain Compounds of the Invention to the μ-, δ- and κ-opioid receptors was determined as described above for functional assays using HEK-293 or CHO cells.

[3] = target: recombinant human kappa opioid receptor (κ) (Homo sapiens (Human), UniProt P41145); assay: κ-opioid receptor radioligand dose-displacement binding assay ([3H]-U69,593)
Description: κ-Opioid Receptor Binding Assay Procedures: Membranes from HEK-293 cells, CHO or U-2 OS cells expressing the recombinant human kappa opioid receptor (κ) (cloned in house) were prepared by lysing cells in ice cold hypotonic buffer (2.5 mM MgCl2, 50 mM HEPES, pH 7.4) (10 mL/10 cm dish) followed by homogenization with a tissue grinder/Teflon pestle. Membranes were collected by centrifugation at 30,000×g for 15 min at 4° C. and pellets were resuspended in hypotonic buffer to a final concentration of 1-3 mg/mL. Protein concentrations were determined using the BioRad protein assay reagent with bovine serum albumen as standard. Aliquots of κ receptor membranes were stored at −80° C.
Radioligand dose displacement assays used 0.4 nM [^3H]-U69,593 (GE Healthcare, Piscataway, N.J.; 40 Ci/mmole) with 15 μg membrane protein (recombinant κ opioid receptor expressed in HEK 293 cells; in-house prep) in a final volume of 200 μl binding buffer (5% DMSO, 50 mM Trizma base, pH 7.4). Non-specific binding was determined in the presence of 10 μM unlabeled naloxone or U69,593. All reactions were performed in 96-well polypropylene plates for 1 hour at a temperature of about 25° C. Binding reactions were terminated by rapid filtration onto 96-well Unifilter GF/C filter plates (Perkin Elmer, Shelton, Conn.) presoaked in 0.5% polyethylenimine (Sigma). Harvesting was performed using a 96-well tissue harvester (Perkin Elmer, Shelton, Conn.) followed by five filtration washes with 200 μl ice-cold binding buffer. Filter plates were subsequently dried at 50° C. for 1-2 hours. Fifty μl/well scintillation cocktail (Perkin Elmer, Shelton, Conn.) was added and plates were counted in a Packard Top-Count for 1 min/well.
(§9) In TABLE 1, binding affinity of certain Compounds of the Invention to the μ-, δ- and κ-opioid receptors was determined as described above.

[4] = target: T1, μ-opioid receptor; assay: μ-opioid receptor [35S]GTPγS functional assay, HEK-293 or CHO cells; type: biochemical; settings: for EC50: GTPγS; for Emax: relative to DAMGO
Description: as §1, §2, §3, §8

[5] = target: T2, κ opioid receptor; assay: κ-opioid receptor [35S]GTPγS functional assay, U-2 OS cells; type: biochemical; settings: for EC50: GTPγS; for Emax: relative to U69,593
Description: as §5, §6, §7, §4

[6] = target: T1, μ-opioid receptor; assay: μ-opioid receptor radioligand dose-displacement binding assay ([3H]-diprenorphine)
Description: μ-Opioid Receptor Binding Assay Procedures: Radioligand dose-displacement binding assays for μ-opioid receptors used 0.3 nM [^3H]-diprenorphine (Perkin Elmer, Shelton, Conn.), with […] membrane protein/well in a final volume of 500 μl binding buffer (10 mM MgCl2, 1 mM EDTA, 5% DMSO, 50 mM HEPES, pH 7.4). Reactions were carried out in the absence or presence of increasing concentrations of unlabeled naloxone. All reactions were conducted in 96-deep well polypropylene plates for 2 hours at room temperature. Binding reactions were terminated by rapid filtration onto 96-well Unifilter GF/C filter plates (Perkin Elmer, Shelton, Conn.), presoaked in 0.5% polyethylenimine using a 96-well tissue harvester (Perkin Elmer, Shelton, Conn.) followed by performing three filtration washes with 500 μl of ice-cold binding buffer. Filter plates were subsequently dried at 50° C. for 2-3 hours. BetaScint scintillation cocktail (Perkin Elmer, Shelton, Conn.) was added (50 μl/well), and plates were counted using a Packard Top-Count for 1 min/well. The data were analyzed using the one-site competition curve fitting functions in GraphPad PRISM™ v. 3.0 or higher (San Diego, Calif.), or an in-house function for one-site competition curve-fitting.
as §9

| Structure (SMILES) | EC50 [1] [nM] | Emax [1] [%] | EC50 [2] [nM] | Emax [2] [%] | Ki [3] [nM] | EC50 [4] [nM] | Emax [4] [%] | EC50 [5] [nM] | Emax [5] [%] | Ki [6] [nM] |
| --- | --- | --- | --- | --- | --- | --- | --- | --- | --- | --- |
| NC(=O)CN1CC[C@]23CCN(CC4CC4)[C@H](Cc4ccc(O)cc42)[C@@H]3C1 [Compound 11, 2-((4aS,5R,10bR)-13-(cyclopropylmethyl)-9-hydroxy-4,4-a,5,6-tetrahydro-1H-5,10b-(epiminoethano)benzo[f]isoquinolin-3(2H)-yl)acetamide] | 2.41 ± 0.36 | 39.3 ± 3.28 | 5.25 ± 1.09 | 63 | 0.26 | 2.44 ± 0.76 | 87.2 | 0.92 ± 0.15 | 102 ± 2.33 |  |
| O=C(O)CN1CC[C@]23CCN(CC4CC4)[C@H](Cc4ccc(O)cc42)[C@@H]3C1 [Compound 15, 2-((4aS,5R,10bR)-13-(cyclopropylmethyl)-9-hydroxy-4,4-a,5,6-tetrahydro-1H-5,10b-(epiminoethano)benzo[f]isoquinolin-3(2H)-yl)acetic acid] | 20.8 ± 0.89 | 27 ± 3 | 55 ± 18.9 | 73.3 | 2.52 ± 0.97 | 28.6 ± 9.31 | 53.3 | 5.44 ± 0.39 | 108 ± 4.7 |  |
| COc1ccc(CN2C=C3[C@H]4Cc5ccc(OC)cc5[C@@]3(CCN4CC3CC3)CC2=O)cc1 [Compound 2, (5R,10bR)-13-(cyclopropylmethyl)-9-methoxy-3-(4-methoxybenzyl)-5,6-dihydro-1H-5,10b-(epiminoethano)benzo[f]isoquinolin-2(3H)-one] |  |  | 714 ± 256 | 68.8 |  | 268 ± 44 | 95.3 |  |  |  |
| COc1ccc2c(c1)[C@@]13CCNC[C@H]1[C@@H](C2)N(CC1CC1)CC3 [Compound 10, (4aS,5R,10bR)-13-(cyclopropylmethyl)-9-methoxy-2,3,4,4a,5,6-hexahydro-1H-5,10b-(epiminoethano)benzo[f]isoquinoline] |  |  | 2180 ± 562 | 71.3 | 37 ± 7.96 | 2180 ± 394 | 66.7 |  |  |  |
| O=C1C[C@]23CCN(CC4CC4)[C@H](Cc4ccc(O)cc42)C3=CN1Cc1ccc(O)cc1 [Compound 6, (5R,10bR)-13-(cyclopropylmethyl)-9-hydroxy-3-(4-hydroxybenzyl)-5,6-dihydro-1H-5,10b-(epiminoethano)benzo[f]isoquinolin-2(3H)-one] |  |  | 30.6 ± 6.75 | 41.7 | 1.27 ± 0.19 | 57.5 ± 15.5 | 28 |  |  | 22.8 ± 8.32 |
| COc1ccc2c(c1)[C@]13CCN(CC4CC4)[C@H](C2)[C@@H]1CNC(=O)C3 [Compound 3, (4aS,5R,10bS)-13-(cyclopropylmethyl)-9-methoxy-4,4-a,5,6-tetrahydro-1H-5,10b-(epiminoethano)benzo[f]isoquinolin-2(3H)-one] |  |  | 435 ± 74 | 84 | 5.84 ± 0.59 | 856 ± 48.7 | 62.7 |  |  |  |
| C[C@H](N)C(=O)N1CC[C@]23CCN(CC4CC4)[C@H](Cc4ccc(O)cc42)[C@@H]3C1 [Compound 14, (S)-2-amino-1-((4aS,5R,10bS)-13-(cyclopropylmethyl)-9-hydroxy-4,4-a,5,6-tetrahydro-1H-5,10b-(epiminoethano)benzo[f]isoquinolin-3(2H)-yl)propan-1-one] | 9.82 ± 1.96 | 35.3 ± 4.18 | 1.98 ± 0.51 | 86 | 0.09 ± 0.02 | 4.62 ± 1.55 | 82.7 | 0.16 ± 0.025 | 104 ± 3.61 |  |
| COc1ccc(CN2CC[C@]34CCN(CC5CC5)[C@H](Cc5ccc(OC)cc53)[C@@H]4C2)cc1 [Compound 9, (4aS,5R,10bR)-13-(cyclopropylmethyl)-9-methoxy-3-(4-methoxybenzyl)-2,3,4,4a,5,6-hexahydro-1H-5,10b-(epiminoethano)benzo[f]isoquinoline] |  |  | 1990 ± 339 | 46.7 | 204 ± 48.6 | 732 ± 70.1 | 89 |  |  |  |
| Oc1ccc(CN2CC[C@]34CCN(CC5CC5)[C@H](Cc5ccc(O)cc53)[C@@H]4C2)cc1 [Compound 12, (4aS,5R,10bR)-13-(cyclopropylmethyl)-3-(4-hydroxybenzyl)-2,3,4,4a,5,6-hexahydro-1H-5,10b-(epiminoethano)benzo[f]isoquinolin-9-ol] | 7.11 ± 2.99 | 47 ± 8.14 | 20.8 ± 2.53 | 54.3 | 0.98 ± 0.25 | 6.87 ± 0.84 | 58 | 6.51 ± 1.03 | 110 ± 2.73 |  |
